One series has as its system GL261-luc2. In words: MTT cell viability assay in GL261-luc2. It counts as cell-based. The conditions noted are these: Mus musculus, 72 h, read-out: MTT assay IC50. (Formazan colour is commonly taken as a measure of viable cells.)
Series [1] in a line: in vitro. The conditions noted are these: mouse.
The next series has as its system Caco-2 cell monolayer. The series can be described thus: Bidirectional Caco-2 cell monolayer permeability. The conditions noted are these: based on the Caco-2 permeability study.
The nature of series [2]: Bidirectional Caco-2 cell monolayer permeability. The conditions noted are these: human, Caco-2, pH 6.5. A general note: Passage across Caco-2 layers is used to estimate intestinal permeability.
The nature of series [3]: in vitro. The conditions noted are these: human, microsomes.
In the next series the test system is CD-1 mice. The conditions noted are these: mouse, in vivo.

Where two headings read alike, the source gives them in different places.

Take `O=C(O)c1cc2ccc(N3CCCC3)cc2oc1=O` [4b]: the half-maximal inhibitory concentration (IC50) in the series with GL261-luc2 is greater than 250 µM.

`CC(C)NCC(O)COc1cccc2ccccc12` (centres unmarked) [Propranolol] gave a half-life at 0.1 μM in the series “in vitro [1]” (liver microsomes, Half-life Trial 2, mouse liver microsomes, 0.1 μM) of 0.158 h.

`C=CCN(CC=C)c1ccc2cc(C(=O)O)c(=O)oc2c1` [4d]: in the series on GL261-luc2, the IC50 is greater than 250 µM.

With `C#CCN(CC#C)c1ccc2cc(C(=O)O)c(=O)oc2c1` [4e], in the series with GL261-luc2, the IC50 was greater than 250 µM.

`O=C(O)c1cc2ccc(N(Cc3ccccc3)Cc3ccccc3)cc2oc1=O` [4a, 7-(dibenzylamino)-2-oxo-2H-chromene-3-carboxylic acid]: the Absorption in the series with Caco-2 cell monolayer is listed as ~ 30%. This compound also displayed a Papp A→B at 10 µM in series [2] of 32 ×10⁻⁶ cm/s. The same compound came in with a Papp B→A at 10 µM in series [2] of 6.4 ×10⁻⁶ cm/s. Further, in the series on GL261-luc2, the IC50 is greater than 250 µM. Further, the intrinsic metabolic clearance (microsomal CLint) at 0.1 μM in the series “in vitro [3]” and in “in vitro [1]” (microsomes) was less than 116 µL/min/mg throughout. Moreover, the half-life at 0.1 μM is 1.51 h in the series “in vitro [1]” (microsomes, Half-life Trial 1) and 1.23 h in the series “in vitro [1]” (microsomes, Half-life Trial 2). The “Body weights compared to the control group” value in the series on CD-1 mice (ip, 20 mg/kg) is given as “no significant difference in body weights”; in the series with CD-1 mice (po, 100 mg/kg), “no significant difference in body weights”. For the same compound, the “Visible toxic effects or mortality” value in the series with CD-1 mice (ip, 20 mg/kg) is recorded as “did not show any visible toxic effects or mortality”; in the series on CD-1 mice (po, 100 mg/kg) it was “did not show any visible toxic effects or mortality”.

For `CCCN(CCC)c1ccc2cc(C(=O)O)c(=O)oc2c1` [4c], the 50% inhibitory concentration (IC50) with GL261-luc2 is greater than 250 µM.

As usually defined, the IC50 is the concentration at which inhibition is half-maximal. Usually half-life stands for the time in which the quantity being followed falls by half. By Papp A→B is commonly meant the apparent permeability from the apical to the basolateral side of a cell layer. A high value points to fast passage. By Papp B→A is commonly meant the apparent permeability from the basolateral to the apical side of a cell layer. In general, microsomal CLint refers to the rate of metabolic loss divided by the concentration. Higher therefore signals rapid turnover.
